# Data: patent US12624127B2, “Chitosan derivatives as antimicrobials and synergistic combinations thereof” (priority 2022, dated 2026)
# Assays:
# A. baumannii AB-1 = assay: Checkerboard synergy assay of 2,6-DAC with antibiotics; format: cell-based, Acinetobacter baumannii; settings: A. baumannii AB-1 (MDR)
# Procedure: (§1) 2,6-DAC was screened as a potentiating agent for synergistic combinations with antibiotics against both A. baumannii AB-1 and MRSA USA300. Before the synergy tests, the MIC values of antibiotics were tested against MDR A. baumannii AB-1 and MRSA USA300 by following the MIC determination protocol in Example 4. Then, the synergy of 2,6-DAC with antibiotics was determined.
# (§2) Synergy was measured by time killing assay and checkerboard assay. Time killing assay was performed by following the protocol in Example 4. Checkerboard susceptibility assays to measure combinations of antimicrobials were performed in MHB at 37° C. as previously described (K. R. V. Thappeta et al., ACS Infect. Dis. 2020, 6, 1228-1237; and Z. Si et al., Angew. Chem. Int. Ed. 2020, 59, 6819-6826). The fractional inhibitory concentration (FIC) indices were calculated according to the following formula: […]
# A. baumannii = assay: MIC determination, broth micro dilution; format: cell-based, Acinetobacter baumannii; settings: A. baumannii AB-1, antibiotic alone; for MIC: Acinetobacter baumannii, read-out: MIC of antibiotic without 2,6-DAC
# Procedure: (§3) MIC values were determined using a broth micro dilution method. Bacteria cells were grown overnight at 37° C. in MHB to a mid-log phase (OD600 between 0.4-0.5 for each organism) and diluted in MHB to 10^5 CFU/mL. […] 50 μL of the 1-5×10^5 CFU/mL bacterial cultures (final concentration) was aliquoted into 96-well microtiter plates and mixed with 50 μL of two-fold dilutions of the polymer or antibiotics and incubated for 16-18 h at 37° C. with shaking at 200 rpm.
# as §1
# MRSA = assay: MIC determination, broth micro dilution; format: cell-based; settings: MRSA USA300; for MIC: Staphylococcus aureus, read-out: MIC of antibiotic alone / without 2,6-DAC
# Procedure: as §3, §1
# MRSA USA300 = assay: Checkerboard synergy assay of 2,6-DAC with antibiotics; format: cell-based; settings: for MIC, antibiotic in combination: antibiotic concentration in combination with 2,6-DAC
# Procedure: as §1, §2
molecule,measurement,setting,value
CC1COc2c(N3CCN(C)CC3)c(F)cc3c(=O)c(C(=O)O)cn1c23 (stereo not drawn) [Ofloxacin],"MIC of antibiotic +16 μg/mL 2,6-DAC",A. baumannii AB-1,8 µg/mL
same,"MIC of antibiotic +32 μg/mL 2,6-DAC",A. baumannii AB-1,4 µg/mL
same,MIC,A. baumannii,8 µg/mL
O=C(O)c1cn(C2CC2)c2cc(N3CCNCC3)c(F)cc2c1=O [Ciprofloxacin],MIC,MRSA,8 µg/mL
same,"Synergy with 2,6-DAC (in words)",MRSA USA300,no synergy
C[C@@H](O)[C@H]1C(=O)N2C(C(=O)O)=C(S[C@@H]3CN[C@H](C(=O)Nc4cccc(C(=O)O)c4)C3)[C@H](C)[C@H]12 [Ertapenem],"MIC of antibiotic +16 μg/mL 2,6-DAC",A. baumannii AB-1,4 µg/mL
same,"MIC of antibiotic +32 μg/mL 2,6-DAC",A. baumannii AB-1,2 µg/mL
same,MIC,A. baumannii,> 128 µg/mL
Colistin,"MIC of antibiotic alone / without 2,6-DAC",MRSA,50 µg/mL
same,"Synergy with 2,6-DAC (in words)",MRSA USA300,no synergy
O=C(N[C@H](CO)[C@H](O)c1ccc([N+](=O)[O-])cc1)C(Cl)Cl [Chloramphenicol],MIC,MRSA,4 µg/mL
same,"Synergy with 2,6-DAC (in words)",MRSA USA300,no synergy
CC[C@H]1OC(=O)[C@H](C)[C@@H](O[C@H]2C[C@@](C)(OC)[C@@H](O)[C@H](C)O2)[C@H](C)[C@@H](O[C@@H]2O[C@H](C)C[C@H](N(C)C)[C@H]2O)[C@](C)(O)C[C@@H](C)CN(C)[C@H](C)[C@@H](O)[C@]1(C)O [Azithromycin],"MIC of antibiotic +16 μg/mL 2,6-DAC",A. baumannii AB-1,64 µg/mL
same,"MIC of antibiotic +32 μg/mL 2,6-DAC",A. baumannii AB-1,1 µg/mL
same,MIC,A. baumannii,128 µg/mL
CC1(C)S[C@@H]2[C@H](NC(=O)[C@H](N)c3ccccc3)C(=O)N2[C@H]1C(=O)O [Ampicillin],MIC,MRSA,4 µg/mL
same,"MIC, antibiotic in combination",MRSA USA300,2 µg/mL
Ramoplanin,"MIC of antibiotic +16 μg/mL 2,6-DAC",A. baumannii AB-1,128 µg/mL
same,"MIC of antibiotic +32 μg/mL 2,6-DAC",A. baumannii AB-1,2 µg/mL
same,"MIC of antibiotic without 2,6-DAC",A. baumannii,>128 µg/mL
CO[C@@]1(NC(=O)Cc2cccs2)C(=O)N2C(C(=O)O)=C(COC(N)=O)CS[C@@H]21 [Cefoxitin],"MIC of antibiotic +16 μg/mL 2,6-DAC",A. baumannii AB-1,128 µg/mL
same,"MIC of antibiotic +32 μg/mL 2,6-DAC",A. baumannii AB-1,8 µg/mL
same,MIC,A. baumannii,> 128 µg/mL
C[C@@H](O)[C@H]1C(=O)N2C(C(=O)O)=C(S[C@@H]3CN[C@H](CNS(N)(=O)=O)C3)[C@H](C)[C@H]12 [Doripenem],"MIC of antibiotic +16 μg/mL 2,6-DAC",A. baumannii AB-1,4 µg/mL
same,"MIC of antibiotic +32 μg/mL 2,6-DAC",A. baumannii AB-1,≤2 µg/mL
same,MIC,A. baumannii,32 µg/mL
COc1cc(Cc2cnc(N)nc2N)cc(OC)c1OC [Trimethoprim],"Synergy with 2,6-DAC (in words)",MRSA USA300,no synergy
C[C@@H](O)[C@H]1C(=O)N2C(C(=O)O)=C(SCCN=CN)C[C@H]12 [Imipenem],"MIC of antibiotic +16 μg/mL 2,6-DAC",A. baumannii AB-1,8 µg/mL
same,"MIC of antibiotic +32 μg/mL 2,6-DAC",A. baumannii AB-1,1 µg/mL
same,MIC,A. baumannii,64 µg/mL
CC(=O)OCC1=C(C(=O)O)N2C(=O)[C@@H](NC(=O)Cc3cccs3)[C@H]2SC1 [Cephalothins],"MIC of antibiotic +16 μg/mL 2,6-DAC",A. baumannii AB-1,128 µg/mL
same,"MIC of antibiotic +32 μg/mL 2,6-DAC",A. baumannii AB-1,2 µg/mL
same,"MIC of antibiotic without 2,6-DAC",A. baumannii,>128 µg/mL
C[C@H]1COc2c(N3CCN(C)CC3)c(F)cc3c(=O)c(C(=O)O)cn1c23 [Levofloxacin],"MIC of antibiotic +16 μg/mL 2,6-DAC",A. baumannii AB-1,2 µg/mL
same,"MIC of antibiotic +32 μg/mL 2,6-DAC",A. baumannii AB-1,≤1 µg/mL
same,MIC,A. baumannii,4 µg/mL
CC1(C)S[C@@H]2[C@H](NC(=O)C(C(=O)O)c3ccccc3)C(=O)N2[C@H]1C(=O)O (stereo partly drawn) [Carbenicillin],MIC,MRSA,8 µg/mL
same,"MIC, antibiotic in combination",MRSA USA300,2 µg/mL
Polymyxin B,"MIC of antibiotic alone / without 2,6-DAC",MRSA,32 µg/mL
same,"Synergy with 2,6-DAC (in words)",MRSA USA300,no synergy
CC1(C)S[C@@H]2[C@H](NC(=O)[C@H](N)c3ccc(O)cc3)C(=O)N2[C@H]1C(=O)O [Amoxicillin],"MIC of antibiotic +16 μg/mL 2,6-DAC",A. baumannii AB-1,128 µg/mL
same,"MIC of antibiotic +32 μg/mL 2,6-DAC",A. baumannii AB-1,16 µg/mL
same,MIC,A. baumannii,> 128 µg/mL
CC[C@H]1OC(=O)[C@H](C)[C@@H](O[C@H]2C[C@@](C)(OC)[C@@H](O)[C@H](C)O2)[C@H](C)[C@@H](O[C@@H]2O[C@H](C)C[C@H](N(C)C)[C@H]2O)[C@](C)(O)C[C@@H](C)C(=O)[C@H](C)[C@@H](O)[C@]1(C)O [Erythromycin],"MIC of antibiotic +16 μg/mL 2,6-DAC",A. baumannii AB-1,64 µg/mL
same,"MIC of antibiotic +32 μg/mL 2,6-DAC",A. baumannii AB-1,4 µg/mL
same,MIC,A. baumannii,> 128 µg/mL
CCN1CCN(C(=O)N[C@@H](C(=O)N[C@@H]2C(=O)N3[C@@H]2SC(C)(C)[C@@H]3C(=O)O)c2ccccc2)C(=O)C1=O [Piperacillin],MIC,MRSA,4 µg/mL
same,"Synergy with 2,6-DAC (in words)",MRSA USA300,no synergy
